In publication PMC8286840, “Identifying SARS-CoV-2 antiviral compounds by screening for small molecule inhibitors of Nsp3 papain-like protease” (Biochemical Journal, 2021):
Counter-ions that a name gives are not always drawn. Like-named read-outs stand apart in the source and are kept apart here.

Assays:
[1] = target: T1, SARS-CoV-2 PLpro (nsp3 1564–1878) (Severe acute respiratory syndrome coronavirus 2, UniProt P0DTD1); experiment: biochemical; parameters: FRET-quenched peptide (Pro3) cleavage by PLpro, 10 min pre-incubation, slope over 20 min, normalised to no-compound control; conditions: high concentration screen, read-out: % of control remaining
[2] = target: T1, SARS-CoV-2 PLpro (nsp3 1564–1878); experiment: biochemical; parameters: FRET-quenched peptide (Pro3) cleavage by PLpro, 10 min pre-incubation, slope over 20 min, normalised to no-compound control; conditions: low concentration screen, read-out: % of control remaining
Description: The plates were organized with columns 3–22 containing the compounds; the remaining columns were used for reaction controls including substrate only and substrate with enzyme but no compound (Figure 3Aii). The PLpro enzyme was pre-incubated with the compounds for 10 min, and then the reaction was initiated by the addition of substrate. […] We incubated the inhibitors with PLpro before the enzymatic reaction so that the slow-binding inhibitors will not be missed out [21]. […] Fluorescence was read on a Spark multimode microplate reader (Tecan) with an excitation wavelength at 330 nm and emission wavelength at 420 nm. […] An amount of 5 µl of the enzyme was pre-incubated with compounds for 10 min before the addition of 15 µl substrate. Fluorescence was monitored at 2 min for 20 min with 3 min intervals giving a total of seven readings.

## CC(=O)N1N=C(c2ccc(N)cc2)c2cc3c(cc2C[C@H]1C)OCO3 [Talampanel]
[1]; Well no.=5791
  remaining activity at 3.75 µM: 97.1%
[1]; Well no.=6496
  remaining activity at 3.75 µM: 99.6%
[2]; Well no.=5791
  remaining activity at 1.25 µM: 97.9%
[2]; Well no.=6496
  remaining activity at 1.25 µM: 96.3%

## C[C@@H]1CN(Cc2ccc(F)cc2)[C@@H](C)CN1C(=O)c1cc2c(C(=O)C(=O)N(C)C)cn(C)c2cc1Cl [Talmapimod]
[1]; Well no.=7304
  remaining activity at 3.75 µM: 91.9%
[2]; Well no.=7304
  remaining activity at 1.25 µM: 99.8%

## CC[C@H](NC(=O)c1c(O)c(-c2ccccc2)nc2ccccc12)c1ccccc1 [Talnetant]
[1]; Well no.=5814
  remaining activity at 3.75 µM: 97.8%
[1]; Well no.=8479
  remaining activity at 3.75 µM: 100%
[2]; Well no.=5814
  remaining activity at 1.25 µM: 97.3%
[2]; Well no.=8479
  remaining activity at 1.25 µM: 104%

## CC1(C)CCC(C)(C)c2cc(NC(=O)c3ccc(C(=O)O)cc3)ccc21 [Tamibarotene]
[1]; Well no.=8108
  remaining activity at 3.75 µM: 101%
[2]; Well no.=8108
  remaining activity at 1.25 µM: 97.6%

## Nc1nc(-n2cccn2)nc(-n2cccn2)c1Br [Taminadenant]
[1]; Well no.=8565
  remaining activity at 3.75 µM: 90.5%
[2]; Well no.=8565
  remaining activity at 1.25 µM: 99.5%

## CC/C(=C(\c1ccccc1)c1ccc(OCCN(C)C)cc1)c1ccccc1 [Tamoxifen citrate]
[1]; Well no.=1184
  remaining activity at 3.75 µM: 99.3%
[2]; Well no.=1184
  remaining activity at 1.25 µM: 97.1%

## CC/C(=C(\c1ccccc1)c1ccc(OCCN(C)C)cc1)c1ccccc1 [Tamoxifen]
[1]; Well no.=2240
  remaining activity at 3.75 µM: 93.3%
[2]; Well no.=2240
  remaining activity at 1.25 µM: 90.7%

## CCOc1ccccc1OCCN[C@H](C)Cc1ccc(OC)c(S(N)(=O)=O)c1 [Tamsulosin]
[1]; Well no.=2295
  remaining activity at 3.75 µM: 95.1%
[1]; Well no.=7386
  remaining activity at 3.75 µM: 94.5%
[2]; Well no.=2295
  remaining activity at 1.25 µM: 95%
[2]; Well no.=7386
  remaining activity at 1.25 µM: 98.7%

## COc1cc2c(N3CCN(C(=O)Nc4ccc(OC(C)C)cc4)CC3)ncnc2cc1OCCCN1CCCCC1 [Tandutinib]
[1]; Well no.=2851
  remaining activity at 3.75 µM: 104%
[2]; Well no.=2851
  remaining activity at 1.25 µM: 104%

## C=CCNC1=C2C[C@@H](C)C[C@H](OC)[C@H](O)[C@@H](C)/C=C(\C)[C@H](OC(N)=O)[C@@H](OC)/C=C\C=C(/C)C(=O)NC(=CC1=O)C2=O [Tanespimycin (17-AAG)]
[1]; Well no.=8932
  remaining activity at 3.75 µM: 84.1%
[2]; Well no.=8932
  remaining activity at 1.25 µM: 88%

## O=C(O)COc1cccc(CN(Cc2ccc(-n3cccn3)cc2)S(=O)(=O)c2cccnc2)c1 [Taprenepag]
[1]; Well no.=6182
  remaining activity at 3.75 µM: 97.6%
[2]; Well no.=6182
  remaining activity at 1.25 µM: 96%

## C[C@H](NC(=O)C(C)(C)Oc1ccc(C(F)(F)F)cn1)[C@@H](Cc1ccc(Cl)cc1)c1cccc(C#N)c1 [Taranabant]
[1]; Well no.=7147
  remaining activity at 3.75 µM: 87.5%
[2]; Well no.=7147
  remaining activity at 1.25 µM: 103%

## COc1cc2c(cc1OC)CN(CCc1ccc(NC(=O)c3cc(OC)c(OC)cc3NC(=O)c3cnc4ccccc4c3)cc1)CC2 [Tariquidar]
[1]; Well no.=4796
  remaining activity at 3.75 µM: 92.7%
[2]; Well no.=4796
  remaining activity at 1.25 µM: 98.7%

## CCC(=O)NC[C@@H]1C[C@H]1c1cccc2c1CCO2 [Tasimelteon]
[1]; Well no.=6230
  remaining activity at 3.75 µM: 99%
[2]; Well no.=6230
  remaining activity at 1.25 µM: 97.6%

## C[C@H]1CCN(C(=O)CC#N)C[C@H]1N(C)c1ncnc2[nH]ccc12 [Tasocitinib]
[1]; Well no.=2789
  remaining activity at 3.75 µM: 98.6%
[2]; Well no.=2789
  remaining activity at 1.25 µM: 103%

## NCCS(=O)(=O)O [Taurine]
[1]; Well no.=1233
  remaining activity at 3.75 µM: 104%
[1]; Well no.=6299
  remaining activity at 3.75 µM: 96.7%
[2]; Well no.=1233
  remaining activity at 1.25 µM: 102%
[2]; Well no.=6299
  remaining activity at 1.25 µM: 98.3%

## C[C@H](CCC(=O)NCCS(=O)(=O)O)[C@H]1CC[C@H]2[C@@H]3[C@H](O)C[C@@H]4C[C@H](O)CC[C@]4(C)[C@H]3CC[C@]12C [Taurochenodeoxycholic acid]
[1]; Well no.=6294
  remaining activity at 3.75 µM: 101%
[1]; Well no.=6493
  remaining activity at 3.75 µM: 103%
[2]; Well no.=6294
  remaining activity at 1.25 µM: 101%

## O=S1(=O)CCN(CN2CCS(=O)(=O)NC2)CN1 [Taurolidine]
[1]; Well no.=5628
  remaining activity at 3.75 µM: 109%
[2]; Well no.=5628
  remaining activity at 1.25 µM: 103%

## C[C@H](CCC(=O)NCCS(=O)(=O)O)[C@H]1CC[C@H]2[C@@H]3[C@@H](O)C[C@@H]4C[C@H](O)CC[C@]4(C)[C@H]3CC[C@]12C [Tauroursodeoxycholate (Sodium)]
[1]; Well no.=6310
  remaining activity at 3.75 µM: 104%
[2]; Well no.=6310
  remaining activity at 1.25 µM: 102%

## C[C@H](CCC(=O)NCCS(=O)(=O)O)[C@H]1CC[C@H]2[C@@H]3[C@@H](O)C[C@@H]4C[C@H](O)CC[C@]4(C)[C@H]3CC[C@]12C [Tauroursodeoxycholate dihydrate]
[1]; Well no.=7112
  remaining activity at 3.75 µM: 93.5%
[2]; Well no.=7112
  remaining activity at 1.25 µM: 95.4%

## C[C@H](CCC(=O)NCCS(=O)(=O)O)[C@H]1CC[C@H]2[C@@H]3[C@@H](O)C[C@@H]4C[C@H](O)CC[C@]4(C)[C@H]3CC[C@]12C [Tauroursodeoxycholic Acid (TUDCA)]
[1]; Well no.=8200
  remaining activity at 3.75 µM: 107%
[2]; Well no.=8200
  remaining activity at 1.25 µM: 109%

## C[C@]1(Cn2ccnn2)[C@H](C(=O)O)N2C(=O)C[C@H]2S1(=O)=O [Tazobactam]
[1]; Well no.=7934
  remaining activity at 3.75 µM: 103%
[2]; Well no.=7934
  remaining activity at 1.25 µM: 97.1%

## OC[C@H]1O[C@@H](n2cnc3c(N[C@@H]4CCOC4)ncnc32)[C@H](O)[C@@H]1O [Tecadenoson]
[1]; Well no.=7966
  remaining activity at 3.75 µM: 96.1%
[1]; Well no.=8315
  remaining activity at 3.75 µM: 94.4%
[2]; Well no.=7966
  remaining activity at 1.25 µM: 96.9%
[2]; Well no.=8315
  remaining activity at 1.25 µM: 94.2%

## CCCCCNC(=N)N/N=C/c1c[nH]c2ccc(OC)cc12 [Tegaserod (maleate)]
[1]; Well no.=6615
  remaining activity at 3.75 µM: 104%
[2]; Well no.=6615
  remaining activity at 1.25 µM: 103%

## O=C(CNC(=O)c1cccc(C(F)(F)F)c1)N[C@@H]1CCN(Cc2ccc(Cl)cc2)C1 [Teijin compound 1 hydrochloride]
[1]; Well no.=5505
  remaining activity at 3.75 µM: 112%
[2]; Well no.=5505
  remaining activity at 1.25 µM: 104%

## CNC(=O)c1cc(COc2nnc(Nc3ccc(Cl)cc3)c3ccoc23)ccn1 [Telatinib (BAY 57-9352)]
[1]; Well no.=4858
  remaining activity at 3.75 µM: 104%
[2]; Well no.=4858
  remaining activity at 1.25 µM: 99.7%

## Cc1cn([C@@H]2C[C@@H](O)[C@H](CO)O2)c(=O)[nH]c1=O [Telbivudine]
[1]; Well no.=8380
  remaining activity at 3.75 µM: 92.3%
[1]; Well no.=8839
  remaining activity at 3.75 µM: 96.3%
[2]; Well no.=8380
  remaining activity at 1.25 µM: 92.4%
[2]; Well no.=8839
  remaining activity at 1.25 µM: 98.6%

## Cc1scc2c1N(C(=O)CN1CCN(C)CC1)c1ccccc1NC2=O [Telenzepine dihydrochloride]
[1]; Well no.=1186
  remaining activity at 3.75 µM: 97.7%
[2]; Well no.=1186
  remaining activity at 1.25 µM: 95.7%

## CCCc1nc2c(C)cc(-c3nc4ccccc4n3C)cc2n1Cc1ccc(-c2ccccc2C(=O)O)cc1 [Telmisartan]
[1]; Well no.=2297
  remaining activity at 3.75 µM: 94.3%
[1]; Well no.=6283
  remaining activity at 3.75 µM: 108%
[2]; Well no.=2297
  remaining activity at 1.25 µM: 95.4%
[2]; Well no.=6283
  remaining activity at 1.25 µM: 105%
